Experimental data: patent publication US20120197004A1, “NOVEL ANTI-MICROBIAL PEPTIDOMIMETIC COMPOUNDS AND METHODS TO CALCULATE ANTI-MICROBIAL ACTIVITY” (priority 2006, published 2012)
In brackets after ≈: the same amount, converted by molar mass. Like-named read-outs stand apart in the source and are kept apart here. Where a SMILES comes first, the peptide text is derived from it. [ ]: non-standard residue; d: D form. ξ: configuration not given here. Oic = O=C(O)[C@@H]1C[C@@H]2CCCC[C@@H]2N1; Tic = O=C(O)[C@@H]1Cc2ccccc2CN1; ξTic = O=C(O)C1Cc2ccccc2CN1; ξOic = O=C(O)C1CC2CCCCC2N1

Columns and labels:
[1] = system: red blood cells
[2] = system: Plasmodium falciparum W2 (CDC Indochina III chloroquine, quinine, pyrimethamine and sulfadoxine-resistant)
[3] = system: Bacillus subtillis (ATCC 43223); details: for p(MIC) Bacillus Subtillis: -log(MIC); for MIC Bacillus Subtillis: ATCC 43223
[4] = system: Mycobacterium ranae (ATCC 110)
[5] = system: Salmonella typhimurium (ATCC 13311); details: for p(MIC) Salmonella typhimurium: -log(MIC); for MIC Salmonella typhimurium: ATCC 13311
[6] = system: Plasmodium falciparum D6 (CDC Sierra Leone, mefloquine resistant)
[7] = system: Staphylococcus aureus Methicillin/Gentamicin/Tetracycline Resistant (ATCC 33592); details: for p(MIC) Staphylococcus aureus ME/GM/TC resistant: -log(MIC); for MIC Staphylococcus aureus ME/GM/TC resistant: Minimal Inhibitory Concentration, tested at 100-0.1 in 1% DMSO; for Minimum Inhibitory Concentration Staphylococcus aureus ME/GM/TC resistant: in vitro MIC, tested at 100, 30, 10, 3, 1, 0.3 and 0.1 μM in 1% DMSO; for Actual Bioactivity: p(MIC) used in Staphylococcus aureus QSAR model
[8] = system: red blood cells; experiment: Hemolytic studies; details: concentration not given
[9] = in vitro; details: human, microsomes, pH 7.4
[10] = in vitro; details: dog, microsomes, pH 7.4
[11] = in vitro; details: rat, microsomes, pH 7.4
[12] = in vitro; details: monkey, microsomes, pH 7.4
[13] = in vitro; details: mouse, microsomes, pH 7.4
[14] = Maximum tolerated dose in mouse model; type: in vivo; details: IP, 1 mg/kg, dosed daily day 1-6
Protocol: Maximum Tolerated Dose: Six compounds were evaluated in an in vivo mouse model to determine the maximum tolerated dose for each compound by BIOCON, Inc. using the following protocol. For each compound 3 dose concentrations (1/5/25 mg/kg or 5/25/125 mg/kg) were administered IP, 1-2 times per day as split doses. Day 0 weigh the animals, day 1-6 dose daily and observe animals, day 7 weigh, euthanasia followed by necrotize to examine abdominal cavity.

| Compound | IC50 * W2 [2] [µg/mL] | p(MIC) Bacillus Subtillis [3] | MIC Bacillus Subtillis [3] [mM] | Actual Bioactivity [4] | MIC Mycobacterium ranae [4] [mM] | Minimum Inhibitory Concentration Mycobacterium ranae [4] | p(MIC) Salmonella typhimurium [5] | MIC Salmonella typhimurium [5] [mM] | IC50 * D6 [6] [µg/mL] | p(MIC) Staphylococcus aureus ME/GM/TC resistant [7] | MIC Staphylococcus aureus ME/GM/TC resistant [7] [mM] | Minimum Inhibitory Concentration Staphylococcus aureus ME/GM/TC resistant [7] [µM] | Actual Bioactivity [7] | % hemolysis / Hemolytic activity [8] [%] | % hemolysis 100/25 μM (first value) [1] [%/] | % hemolysis 100/25 μM (second value) [1] [%] | remaining at 0.25 h, 1 μM [9] [%] | remaining at 0.5 h, 1 μM [10] [%] | remaining at 1 h, 1 μM [10] [%] | remaining at 0.25 h, 1 μM [11] [%] | also measured |
| --- | --- | --- | --- | --- | --- | --- | --- | --- | --- | --- | --- | --- | --- | --- | --- | --- | --- | --- | --- | --- | --- |
| CC(C)C[C@H](NC(=O)CNC(=O)[C@H](CCCCN)NC(=O)CN)C(=O)N1Cc2ccccc2C[C@H]1C(=O)N1[C@H](C(=O)N[C@@H](Cc2ccccc2)C(=O)N[C@@H](CCCCN)C(=O)N2Cc3ccccc3C[C@H]2C(=O)N2[C@H](C(=O)N[C@@H](CCCCN)C(=O)N[C@@H](Cc3ccccc3)C(=O)N3Cc4ccccc4C[C@H]3C(=O)N3[C@H](C(=O)N[C@@H](Cc4ccccc4)C(=O)N[C@@H](CCCCN)C(=O)N4Cc5ccccc5C[C@H]4C(=O)N4[C@H](C(=O)N[C@@H](CCCCN)C(=O)N[C@@H](Cc5ccccc5)C(=O)N5Cc6ccccc6C[C@H]5C(=O)N5[C@H](C(=O)N[C@@H](Cc6ccccc6)C(=O)N[C@@H](CCCCN)C(=O)N6Cc7ccccc7C[C@H]6C(=O)N6[C@H](C(=O)N[C@@H](Cc7ccccc7)C(=O)N[C@@H](CCCCN)C(=O)N[C@@H](CCCNC(=N)N)C(N)=O)C[C@@H]7CCCC[C@@H]76)C[C@@H]6CCCC[C@@H]65)C[C@@H]5CCCC[C@@H]54)C[C@@H]4CCCC[C@@H]43)C[C@@H]3CCCC[C@@H]32)C[C@@H]2CCCC[C@@H]21 [WRFK-5, NH2-GKGL-Tic-Oic-FK-Tic-Oic-KF-Tic-Oic-FK-Tic-Oic-KF-Tic-Oic-FK-Tic-Oic-FKR-CONH2] (H-GKGL[Tic][Oic]FK[Tic][Oic]KF[Tic][Oic]FK[Tic][Oic]KF[Tic][Oic]FK[Tic][Oic]FKR-NH2) | 4.2 (≈ 1.04 µM) | 5.52 | 0.003 (≈ 0.0121 mg/mL) | 0.000 | 1000 (≈ 4040 mg/mL) | not active | 4.00 | 0.1 (≈ 0.404 mg/mL) | 3.9 (≈ 0.965 µM) | 4.52 | 0.03 (≈ 0.121 mg/mL) | 30 | 4.520 | – | – | – | – | – | – | – | % hemolysis 100/25 μM (first value) ([1]; 100 μM): 100% |
| CC(C)C[C@H](NC(=O)CNC(=O)[C@H](CCCCN)NC(=O)CN)C(=O)N1Cc2ccccc2C[C@H]1C(=O)N1[C@H](C(=O)NCC(=O)N[C@@H](CCCCN)C(=O)N2Cc3ccccc3C[C@H]2C(=O)N2[C@H](C(=O)NCC(=O)N[C@@H](CC(C)C)C(=O)N3Cc4ccccc4C[C@H]3C(=O)N3[C@H](C(=O)NCC(=O)N[C@@H](CCCCN)C(=O)N4Cc5ccccc5C[C@H]4C(=O)N4[C@H](C(=O)NCC(=O)N[C@@H](CC(C)C)C(=O)N5Cc6ccccc6C[C@H]5C(=O)N5[C@H](C(=O)NCC(=O)N[C@@H](CCCCN)C(=O)N6Cc7ccccc7C[C@H]6C(=O)N6[C@H](C(=O)NCC(=O)N[C@@H](CCCCN)C(=O)N[C@@H](CCCNC(=N)N)C(N)=O)C[C@@H]7CCCC[C@@H]76)C[C@@H]6CCCC[C@@H]65)C[C@@H]5CCCC[C@@H]54)C[C@@H]4CCCC[C@@H]43)C[C@@H]3CCCC[C@@H]32)C[C@@H]2CCCC[C@@H]21 [WRFK-4, NH2-GKGL-Tic-Oic-GK-Tic-Oic-GL-Tic-Oic-GK-Tic-Oic-GL-Tic-Oic-GK-Tic-Oic-GKR-CONH2] (H-GKGL[Tic][Oic]GK[Tic][Oic]GL[Tic][Oic]GK[Tic][Oic]GL[Tic][Oic]GK[Tic][Oic]GKR-NH2) | 6.5 (≈ 1.87 µM) | – | – | – | – | – | 4.00 | 0.1 (≈ 0.347 mg/mL) | 7.8 (≈ 2.25 µM) | 5.00 | – | – | 5.000 | 100 | – | – | – | – | – | – | – |
| CC(C)C[C@H](NC(=O)CNC(=O)[C@H](CCCCN)NC(=O)CN)C(=O)N1Cc2ccccc2C[C@H]1C(=O)N1[C@H](C(=O)NCC(=O)N[C@@H](CCCNC(=N)N)C(=O)N2Cc3ccccc3C[C@H]2C(=O)N2[C@H](C(=O)NCC(=O)N[C@@H](Cc3ccccc3)C(=O)N3Cc4ccccc4C[C@H]3C(=O)N3[C@H](C(=O)NCC(=O)N[C@@H](CCCNC(=N)N)C(=O)N4Cc5ccccc5C[C@H]4C(=O)N4[C@H](C(=O)NCC(=O)N[C@@H](Cc5ccccc5)C(=O)N5Cc6ccccc6C[C@H]5C(=O)N5[C@H](C(=O)NCC(=O)N[C@@H](CCCNC(=N)N)C(=O)N6Cc7ccccc7C[C@H]6C(=O)N6[C@H](C(=O)NCC(=O)N[C@@H](CCCCN)C(=O)N[C@@H](CCCNC(=N)N)C(N)=O)C[C@@H]7CCCC[C@@H]76)C[C@@H]6CCCC[C@@H]65)C[C@@H]5CCCC[C@@H]54)C[C@@H]4CCCC[C@@H]43)C[C@@H]3CCCC[C@@H]32)C[C@@H]2CCCC[C@@H]21 [WRFK-2, NH2-GKGL-Tic-Oic-GR-Tic-Oic-GF-Tic-Oic-GR-Tic-Oic-GF-Tic-Oic-GR-Tic-Oic-GKR-CONH2] (H-GKGL[Tic][Oic]GR[Tic][Oic]GF[Tic][Oic]GR[Tic][Oic]GF[Tic][Oic]GR[Tic][Oic]GKR-NH2) | 6.9 (≈ 1.9 µM) | 6.00 | 0.001 (≈ 0.00362 mg/mL) | 0.000 | 1000 (≈ 3620 mg/mL) | not active | 4.00 | 0.1 (≈ 0.362 mg/mL) | 7.2 (≈ 1.99 µM) | 5.00 | 0.01 (≈ 0.0362 mg/mL) | 10 | 5.000 | 100 | – | – | – | – | – | – | – |
| CC(=O)NCC(=O)N1Cc2ccccc2CC1C(=O)N1C(C(=O)N[C@@H](CCCCN)C(=O)N2Cc3ccccc3CC2C(=O)N2C(C(=O)NCC(=O)N3Cc4ccccc4CC3C(=O)N3C(C(=O)N[C@@H](CCCCN)C(=O)N4Cc5ccccc5CC4C(=O)N[C@@H](CCCCN)C(=O)N[C@@H](CCCCN)C(=O)N[C@@H](CCCCN)C(=O)N[C@@H](CCCCN)C(N)=O)CC4CCCCC43)CC3CCCCC32)CC2CCCCC21 (stereo partly drawn) [FKAB-1Ge, Ac-G-Tic-Oic-K-Tic-Oic-G-Tic-Oic-K-Tic-KKKK-CONH2] (Ac-G[ξTic][ξOic]K[ξTic][ξOic]G[ξTic][ξOic]K[ξTic]KKKK-NH2) | – | – | 0.001 (≈ 0.00203 mg/mL) | – | – | – | – | 0.01 (≈ 0.0203 mg/mL) | – | – | 0.01 (≈ 0.0203 mg/mL) | 10 | – | – | 26.7 | 9.2 | 114 | 43 | 54 | 69 | remaining at 0.5 h, 1 μM [11]: 73%; remaining at 1 h, 1 μM [11]: 95%; MIC Mycobacterium ranae ([4]; ATCC 110): 0.003 mM (≈ 0.0061 mg/mL); remaining at 0.25 h, 1 μM [12]: 56%; remaining at 0.5 h, 1 μM [12]: 73%; remaining at 0.25 h, 1 μM [13]: 85%; remaining at 0.5 h, 1 μM [13]: 20%; remaining at 1 h, 1 μM [13]: 11%; Maximum Tolerated Dose/Toxicity 1 mg/kg [14]: no observed toxicity |
| CC(C)C[C@H](NC(=O)[C@@H](N)CCCCN)C(=O)N1Cc2ccccc2CC1C(=O)N1C(C(=O)NCC(=O)N[C@@H](CCCCN)C(=O)N2Cc3ccccc3CC2C(=O)N2C(C(=O)NCC(=O)N[C@@H](Cc3ccccc3)C(=O)N3Cc4ccccc4CC3C(=O)N3C(C(=O)NCC(=O)N[C@@H](CCCCN)C(=O)N4Cc5ccccc5CC4C(=O)N[C@@H](CCCCN)C(=O)N[C@@H](CCCCN)C(=O)N[C@@H](CCCCN)C(=O)N[C@@H](CCCCN)C(N)=O)CC4CCCCC43)CC3CCCCC32)CC2CCCCC21 (stereo partly drawn) [FKAB-1Gb, NH2--KL-Tic-Oic-GK-Tic-Oic-GF-Tic-Oic-GK-Tic-KKKK-CONH2] (H-KL[ξTic][ξOic]GK[ξTic][ξOic]GF[ξTic][ξOic]GK[ξTic]KKKK-NH2) | – | – | 0.001 (≈ 0.00244 mg/mL) | – | – | – | – | 0.003 (≈ 0.00731 mg/mL) | – | – | 0.03 (≈ 0.0731 mg/mL) | 30 | – | – | 43.6 | 24.9 | 98 | 99 | 81 | 84 | remaining at 0.5 h, 1 μM [11]: 84%; remaining at 1 h, 1 μM [11]: 91%; MIC Mycobacterium ranae ([4]; ATCC 110): 0.003 mM (≈ 0.00731 mg/mL); Minimum Inhibitory Concentration Mycobacterium ranae ([4]; ATCC 110): 3 µM; remaining at 0.25 h, 1 μM [12]: 86%; remaining at 0.5 h, 1 μM [12]: 87%; remaining at 1 h, 1 μM [12]: 97%; remaining at 0.25 h, 1 μM [13]: 87%; remaining at 0.5 h, 1 μM [13]: 73%; remaining at 1 h, 1 μM [13]: 70%; Maximum Tolerated Dose/Toxicity 1 mg/kg [14]: no observed toxicity |
